Test [1] relates to K562 cells. Description: Annexin V/PI or 7-AAD flow cytometry of apoptosis, K562. As to conditions: K562, 5× IC50 (3 10 µM, 6 5 µM, 5 5 µM), staurosporine 1 µM; different incubation times for 3, 6 and 5. In kind it is cell-based, human. How it is done:
(§1) The phosphatidylserine on the extracellular side of cell membranes was quantified using an FITC Annexin V Apoptosis Detection Kit I (BD Pharmingen, San Diego, CA, USA) according to the manufacturer’s instruction. 10^6 cells were seeded on a 6-well plate (Nunc). […] The control cells were exposed to 1% DMSO or 1μM staurosporine. After treatment the cells were centrifuged at 700 rpm (120× g) for 5 min, washed twice with cold PBS and then resuspended in 1x binding buffer to a density of 10^6 cells/ml. 100 µL of the resuspended cells was stained in the dark with 5 μl of Annexin V-fluoroscein isothiocyanate (FITC) solution and 10 µL propidium iodide (PI) solution for 15 min at room temperature. The samples were then diluted with 400 μL of a binding buffer and within 1 h analyzed with a flow cytometer (BD FACSCalibur^TM, BD Biosciences, San Jose, CA, USA). After treatment, four populations of cells were assessed: (1) viable (neither apoptotic nor necrotic, Annexin V-FITC and PI negative), (2) apoptotic (Annexin V-FITC positive and PI negative), (3) late apoptotic (Annexin V-FITC and PI positive), and (4) necrotic (Annexin V-FITC negative and PI positive).
0.15 × 10^6 cells/ml were seeded on a 6-well plate (Nunclon, Thermo Fisher Scientific, Waltham, MA, USA). Following 24 h preincubation the cells were treated with either the compound or 1% DMSO (control) for 24 or 48 h. After indicated time, the cells were washed with cold PBS (w/o Mg^2+, Ca^2+), stained with Annexin V (FITC Annexin V Apoptosis Detection Kit with 7-aminoactinomycin D (7-AAD), Biolegend, San Diego, CA, USA) according to manufacturer instructions and analysed using BD FACSCalibur flow cytometer. Obtained Flow Cytometry Standard files were analyzed using BD FACSDiva Software (FACSDiva Version 6.1.3, Becton Dickinson Biosciences, San Jose, CA, USA). The experiment was performed three times in at least two technical replicates.
In general terms: A flow cytometer gives signals particle by particle.

A further test deals with MOLT-4 cells. Description: Annexin V/PI flow cytometry of apoptosis, MOLT-4. In kind it is cell-based, human. The conditions noted are these: MOLT-4, 3 h, 5× IC50 (3 45 µM, 6 20 µM, 5 100 µM). The protocol: as §1
Another test has as its system IKZF1 and IKZF3. Description: IKZF1 and IKZF3 level by immunoblotting in MOLT-4 cells. The conditions noted are these: MOLT-4, 48 h, 3 (5 µM), 5 (10 µM), 6 (2 µM). In kind it is cell-based, human. How it is done:
K562 or MOLT4 cells were seeded on 6-well plate (2 × 10^6 cells/well) in a RPMI 1640 medium containing 10% FBS. MOLT4 cells were exposed to 1% DMSO (vehicle control), test compounds 6 (2 µM), 3 (5 µM), 5 (10 µM). Similarly, K562 cells were exposed to 1% DMSO, test compounds 6 (1 µM), 3 (1 µM), 5 (1 µM) for 48 h. Cells treated with 100 µM thalidomide or 10 µM lenalidomide served as positive controls. After incubation, cells were centrifuged (600 rpm, 6 min, 24 °C), washed once with PBS and lysed in 20 mM Tris (pH 7.2) containing 1% Triton X-100 supplemented with Complete® protease inhibitors cocktail (Roche). The levels of IKZF1 and IKZF3 were assessed by immunoblotting (IB).
Cells were lysed in TBS buffer containing 1% Triton X-100 and Complete® protease inhibitor cocktail (Roche) for 15 min on ice with occasional vortexing. Insoluble material was centrifuged (12,000 rpm, 15 min, 4 °C) and supernatants were collected. Total protein concentration was measured with DC Protein Assay (Bio-Rad, Hercules, CA, USA). Cell lysates containing 30 µg of total protein were mixed with Laemli buffer supplemented with SDS and β-mercaptoethanol, denatured (10 min, 95 °C) and subjected to sodium dodecyl sulfate polyacrylamide gel electrophoresis (SDS-PAGE) electrophoresis (4% stacking and 10% resolving gels). Resolved proteins were electrotransferred (semi-dry, 90 min, 1.5 mA/cm^2) to a 0.45 µm nitrocellulose membrane (Thermo Scientific, Waltham, MA, USA). Membranes were blocked for 2 hours in TBST buffer (20 mM Tris-HCl pH 7.5, 0.9% NaCl, 0.1% Tween 20) containing 5% BSA (BioShop, Burlington, ON, Canada) and probed with primary antibodies (overnight at 4 °C) diluted in TBST buffer with 0.5% BSA. Tubulin served as a loading control for IB experiments. Anti IKZF3 (rabbit monoclonal, dilution 1:500), anti IKZF1 (rabbit polyclonal, dilution 1:500) were from Abcam. Anti IRF4 (rabbit polyclonal, dilution 1:500) were from Cell Signaling Technology. […] Protein bands intensities were analysed using Image Quant (version 5.0, GE Healthcare Life Sciences, Pittsburgh, PA, USA).
In general terms: In western blotting, separated proteins are transferred to a membrane and probed.

Test [2] relates to K562 cells. The conditions noted are these: 48 h, MTT, mean ± SD; cited from earlier work.
Test [3] concerns HUVEC (human umbilical vein endothelial cells). The conditions noted are these: 48 h, MTT, mean ± SD; cited from earlier work.

For `CCC12C(=O)C(CC)(C(c3ccccc3)=C1c1ccccc1)C1C(=O)N(CCN3CCCCC3)C(=O)C12` (stereo not drawn) [Compound 3], the “apoptotic cells, early (LR) and late (UR)” value (from here on “apoptotic cells, early”) in the test with K562 cells [1] is listed as “about 44%”. The apoptotic cells result in the test with MOLT-4 cells was “about 76%”. For the same compound, in the test on IKZF1 and IKZF3, the “level of IKZF1 and IKZF3 (immunoblotting)” value (“level of IKZF1 and IKZF3” for short) is “modest reduction”. The IC50 in the test on K562 cells [2] is 2 ± 0.31 µM; in test [3], more than 100 µM.
As for `CCC12C(=O)C(CC)(C(c3ccccc3)=C1c1ccccc1)C1C(=O)N(CC(O)CNC(C)C)C(=O)C12` (stereo not drawn) [Compound 5], in the test on K562 cells [1], the “apoptotic cells, early” value is reported as “more than 90%”. In addition, the apoptotic cells with MOLT-4 cells is approximately 78%. Moreover, the “level of IKZF1 and IKZF3” value in the test on IKZF1 and IKZF3 is “significant diminution”. For the same compound, the results for the IC50 (in the test on K562 cells [2]; in test [3]) were 1 ± 0.05 µM and more than 100 µM, respectively.
As to `CN(C)CCN1C(=O)C2C(C1=O)C1(c3ccccc3)CC2(c2ccccc2)C(c2ccccc2)=C1c1ccccc1` (stereo not drawn) [Compound 6], the “apoptotic cells, early” value with K562 cells [1] was “more than 90%”. In the test with MOLT-4 cells, this compound returned an apoptotic cells of approximately 99%. The “level of IKZF1 and IKZF3” value in the test with IKZF1 and IKZF3 is recorded as “significant diminution”. Besides, the figures for the IC50 (in the test on K562 cells [2]; in test [3]) were 1 ± 0.3 µM and more than 100 µM, respectively.

As usually defined, the IC50 is the midpoint of a concentration-inhibition curve.

The values are drawn from article PMC6770581, “New Thalidomide-Resembling Dicarboximides Target ABC50 Protein and Show Antileukemic and Immunomodulatory Activities” (Biomolecules, 2019).
